Data reported in patent US20120129179A1, “SCN5A SPLICING FACTORS AND SPLICE VARIANTS FOR USE IN DIAGNOSTIC AND PROGNOSTIC METHODS” (THE BOARD OF TRUSTEES OF THE UNIVERSITY OF ILLINOIS, priority 2009, published 2012).

Tests used:
[1] = biological target: RBM25 (Homo sapiens, UniProt P49756); assay: Gel mobility shift assay; assay type: binding; settings: 0.2 nM RNA, variable amounts of protein, 30 min at 4° C.
Experimental: (§1) Gel mobility shift assays: The biotinylated wild-type ([…]) and mutant ([…]) RNA substrates (SEQ ID NOs: 32 and 33, respectively) were synthesized by Invitrogen. Binding of biotinylated RNA to RBM25 was achieved by incubating 0.2 nM RNA and variable amounts of protein for 30 min at 4° C. in 20 μL of binding buffer (10 mM Tris-HCl, 10 mM HEPES, 100 mM NaCl, 0.1% Triton X-100, 2 mM MgCl2, 1.5 mM dithiothreitol (DTT) pH 7.5, 7% glycerol). For the competition assays, a molar excess of unlabeled competitor RNAs at various fold levels was added to the pre-incubated reaction mixture. Samples were fractionated in a native 5% polyacrylamide gel, transferred to Hybond-N+nylon membrane (Amersham Biosciences), and detected with a LightShift chemiluminescent electrophoretic mobility shift assay kit (Pierce) by following the manufacturer's protocol.
(§2) Gel mobility shift assays were performed as described previously with modification (Shang et al., Am. J. Physiol. Cell. Physiol., 292:C886-95, 2007, the disclosure of which is incorporated herein by reference in its entirety.). The biotinylated wild-type ([…]) and mutant ([…]) RNA substrates (SEQ ID NOs: 32 and 33, respectively) were synthesized. Binding of biotinylated RNA to RBM25 was achieved by incubating 0.2 nM RNA and variable amounts of protein for 30 min at 4° C. in 20 μL binding buffer. […]

[2] = test system: RBM25; assay: Real-time RT-PCR of RBM25 mRNA in Jurkat cells and H9 hESC-cardiomyocytes; assay type: cell-based, human; settings: Ang II-treated (100 nmol/L)
Experimental: (§3) Cell culture assays: Jurkat T cell clones E6.1 (ATCC, Manassas, Va.) were cultured at 37° C. and 5% CO2 in RPMI 1640 medium supplemented with 10% heat inactivated fetal calf serum, 4 mM glutamine, 75 units/mL streptomycin and 100 units/mL penicillin. WA09 (H9) human undifferentiated ESCs were obtained through the National Stem Cell Bank and maintained on irradiated mouse embryonic fibroblasts at 37° C. with 5% CO2. The culture medium consisted of DMEM/F12 (Invitrogen, Carlsbad, Calif.) supplemented with 15% knockout serum, 1% non-essential amino acids, 1 mmol/L L-glutamine, 0.1 mmol/L β-mercaptoethanol, and basic fibroblast growth factor of 20 ng/mL.
(§4) Real-Time PCR quantification: Total RNA was isolated from cultured cells using the Qiagen RNeasy Mini Kit (Valencia, Calif.). Total RNA from human ventricles was isolated using the RNeasy Lipid Tissue Mini Kit (Qiagen). Reverse transcription was carried out at 42° C. for 1 h with Powerscript reverse transcriptase (Roche). β-Actin was used as a reference when making quantitative comparison.
(§5) Because AngII and hypoxia are common in heart failure, we investigated whether these two conditions could influence RBM25 and hLuc7A levels. […] The Jurkat cells and H9 hESC-CMs were divided into three experiment groups: normoxia, hypoxia-treated (1% O2), and Ang II-treated (100 nmol/L). […]

[3] = test system: sXBP1; assay: RT-PCR of sXBP1 expression; assay type: cell-based, human; settings: Ang II-treated
Experimental: as §4
(§6) Hypoxia and AngII were used to increase abnormal SCN5A splicing. The expressions of PERK and sXBP1 were measured by RT-PCR. […] To test if this upregulation of one arm of the UPR was mediated by SCN5A mRNA variants, exogenous E28C and E28D were introduced. The Jurkat cells were divided into four experiment groups: normal control, empty vector control, variant E28C overexpressioned cells, and variant E28D overexpressioned cells. The expression of PERK was measures by RT-PCR in each group at the time point 48 h. […] The upregulation of PERK in Jurkat cells was further confirmed by Western blot.

[4] = test system: RBM25; assay: Western blot of RBM25 in Jurkat cells; assay type: cell-based, human; settings: Ang II 100 nmol/L, vs control group
Description: (§7) Western blot analysis: The Mini-PROTEAN® Tetra Electrophoresis System from BioRad was used for Western blot analysis. Anti-Nav1.5 antibody, recognizing all channel variants, was provided by Dr. Peter Mohler (University of Iowa, Iowa City, Iowa). Anti-RBM25 antibody was provided by Dr. Huang (Dana-Farber Cancer Institute, Harvard, Boston, Mass.). Anti-PERK and hLuc7A antibodies were purchased from R&D Systems (Minneapolis, Minn.) and Millipore, (Billerica, Mass.).
(§8) The upregulation of splicing factors RBM25 and hLuc7A in Jurkat cells was further confirmed by Western blot. The Jurkat cells were divided into three experiment groups: normoxia, hypoxia-treated (1% O2), and Ang II-treated (100 nmol/L). The expressions of RBM25 and hLuc7A were analyzed by Western blot at three time points (12 h, 24 h, and 48 h) for hypoxia-treated group and at four time points (24 h, 48 h, 72 h, and 96 h) for Ang II-treated group. […] The density of hLuc7A was increased by 242.3±9.5%, 236.1±8.4% and 268.8±9.8% in hypoxia-treated group at time points 12 h, 24 h and 48 h, respectively, and was increased by 256.3±9.1%, 246.5±8.6%, 279.7±9.3% and 283.6±9.9% in Ang II-treated group at time points 24 h, 48 h, 72 h and 96 h, respectively (p<0.05).

[5] = test system: full length SCN5A transcript; assay: RT-PCR of full length SCN5A transcript; assay type: cell-based, human; settings: Ang II treatment
Experimental: as §4
(§9) Changes in hLuc7A and RBM25 correlated with SCN5A E28C and E28D variant abundances. Under hypoxia, the expression of SCN5A variants E28C and E28D were increased by 373.5±5.7% and 636.2±7.6%, respectively (p<0.05), while the expressions of the full length SCN5A transcript was decreased by 64.6±4.9% (p<0.05). With Ang II treatment, the expressions of the variants were increased by 291.4±5.2% and 433.7±6.5% for E28C and E28D, respectively (p<0.05), while the expression of the full length SCN5A transcipt was decreased by 78.9±5.4% (p<0.05).
Hypoxia and AngII were used to increase abnormal SCN5A splicing. The expressions of PERK and sXBP1 were measured by RT-PCR. […] To test if this upregulation of one arm of the UPR was mediated by SCN5A mRNA variants, exogenous E28C and E28D were introduced. The Jurkat cells were divided into four experiment groups: normal control, empty vector control, variant E28C overexpressioned cells, and variant E28D overexpressioned cells. […]

[6] = test system: hLuc7A; assay: Western blot of hLuc7A in Jurkat cells; assay type: cell-based, human; settings: Ang II 100 nmol/L, vs control group
Description: as §7, §8

[7] = test system: SCN5A variant E28C; assay: RT-PCR of SCN5A variant E28C; assay type: cell-based, human; settings: Ang II treatment
Experimental: as §4, §9
(§10) The siRNA knockdown efficiency was estimated by both RT-PCR and Western blot and was not less than 50%. The expressions of SCN5A and the variants E28C and E28D were measured by RT-PCR in all experiment groups at time points of maximal siRNA effect.

[8] = test system: hLuc7A; assay: Real-time RT-PCR of hLuc7A mRNA in Jurkat cells and H9 hESC-cardiomyocytes; assay type: cell-based, human; settings: Ang II-treated (100 nmol/L)
Experimental: as §3, §4, §5

[9] = test system: PERK; assay: RT-PCR of PERK expression; assay type: cell-based, human; settings: Ang II-treated, 48 h
Experimental: as §4, §6

[10] = test system: major UPR components (PERK, calnexin, CHOP); assay: Induction of major UPR components in hESC-CMs; assay type: cell-based, human; settings: 100 nmol/L Ang II
Description: The correlation of expression changes among PERK, major human embryonic stem cell-derived cardiomyocytes (hESC-CMs). […] E28C and E28D constructs were transduced to overexpress the truncated proteins.
Finally, downregualtion of PERK prevented the loss of full-length SCN5A mRNA abundance with these stimuli.

[11] = test system: PERK; assay: Western blot of PERK in Jurkat cells; assay type: cell-based, human; settings: Ang II-treated, vs control group
Description: as §7, §6

[12] = test system: SCN5A variant E28D; assay: RT-PCR of SCN5A variant E28D; assay type: cell-based, human; settings: Ang II treatment
Experimental: as §4, §9, §10

[13] = biological target: T1, RBM25 (UniProt P49756 SEQ:1-843); assay: EMSA; mutated canonical site; 0.2 nM RNA, 100 mM NaCl, 2 mM MgCl2, pH 7.5, 4 C; settings: label: biotin
Experimental: as §1, with “MgCl₂,” for “MgCl2,”
as §2

[14] = biological target: T1, RBM25; assay: EMSA; concentration-dependent; 0.2 nM RNA, 10 mM Tris-HCl, 10 mM HEPES, 100 mM NaCl, 2 mM MgCl2, pH 7.5, 4 C; unlabeled competitor assay also run; settings: label: biotin
Experimental: as §1, with “MgCl₂,” for “MgCl2,”
as §2

T1 sequence (P49756 whole entry): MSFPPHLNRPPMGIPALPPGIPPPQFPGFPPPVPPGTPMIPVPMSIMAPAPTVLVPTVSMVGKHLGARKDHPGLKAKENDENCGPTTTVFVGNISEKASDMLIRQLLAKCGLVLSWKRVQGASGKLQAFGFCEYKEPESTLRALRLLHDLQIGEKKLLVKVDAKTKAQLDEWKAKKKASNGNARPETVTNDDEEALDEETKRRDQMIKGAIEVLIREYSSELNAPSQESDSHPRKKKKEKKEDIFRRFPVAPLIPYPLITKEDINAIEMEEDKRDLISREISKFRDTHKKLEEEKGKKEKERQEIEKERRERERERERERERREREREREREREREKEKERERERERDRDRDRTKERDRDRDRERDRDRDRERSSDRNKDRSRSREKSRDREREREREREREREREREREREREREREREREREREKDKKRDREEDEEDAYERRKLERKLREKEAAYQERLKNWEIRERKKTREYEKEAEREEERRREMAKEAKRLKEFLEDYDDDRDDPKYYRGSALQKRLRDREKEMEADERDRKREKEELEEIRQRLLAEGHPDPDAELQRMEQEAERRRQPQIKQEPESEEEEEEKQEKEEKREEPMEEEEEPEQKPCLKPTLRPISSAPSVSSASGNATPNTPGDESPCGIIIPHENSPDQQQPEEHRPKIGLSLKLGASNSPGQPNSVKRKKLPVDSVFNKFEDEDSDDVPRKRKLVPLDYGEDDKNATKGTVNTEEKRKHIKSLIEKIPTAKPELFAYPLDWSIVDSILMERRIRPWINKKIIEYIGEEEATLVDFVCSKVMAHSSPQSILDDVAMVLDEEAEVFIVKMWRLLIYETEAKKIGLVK
Sequence of RBM25 (Homo sapiens, UniProt P49756) (P49756 whole entry): as above

## CAGCAGGCGGGCAGCGGCCU (RNA, backbone not given here; biotinylated RNA) [wild-type RNA substrate]
[1]
  binding of RBM25 to biotinylated RNA substrate: bound the wild-type SCN5A sequence in a concentration-dependent manner

## CAGCAGGUUAGAGGCGGCCU (RNA, backbone not given here; biotinylated RNA) [mutant RNA substrate]
[1]
  binding of RBM25 to biotinylated RNA substrate: inability of RBM25 to bind

## angiotensin II (DRVYIHPF; Angiotensin-2; UniProt P01019 25-32, looked up) [Ang II, angiotensin II, used at 100 nmol/L to treat Jurkat cells and hESC-CMs]
[2]; ES cells (H9 hESC-CMs)
  expression of RBM25 increased by: 42.1±4.7%
[2]; Jurkat cells
  expression of RBM25 increased by: 50.8±4.9%
[3]
  expression upregulation of sXBP1: no expression upregulation
[4]; 24 h
  density of RBM25 increased by: 209.5±8.8%
[4]; 48 h
  density of RBM25 increased by: 212.6±9.7%
[4]; 72 h
  density of RBM25 increased by: 181.3±8.3%
[4]; 96 h
  density of RBM25 increased by: 198.8±8.7%
[5]
  expression of the full length SCN5A transcript decreased by: 78.9±5.4%
[6]; 24 h
  density of hLuc7A increased by: 256.3±9.1%
[6]; 48 h
  density of hLuc7A increased by: 246.5±8.6%
[6]; 72 h
  density of hLuc7A increased by: 279.7±9.3%
[6]; 96 h
  density of hLuc7A increased by: 283.6±9.9%
[7]
  expression of SCN5A variant E28C increased by: 291.4±5.2%
[8]; ES cells (H9 hESC-CMs)
  expression of hLuc7A increased by: 181.2±6.7%
[8]; Jurkat cells
  expression of hLuc7A increased by: 187.3±7.9%
[9]
  expression of PERK increased by: 14.2±0.6 fold
[10]
  induction of major UPR components (PERK, calnexin, CHOP): could induce major UPR components
[11]
  density of PERK increased by: 383.2±10.7%
[12]
  expression of SCN5A variant E28D increased by: 433.7±6.5%

## CAGCAGGUUAGAGGCGGCCU (ssRNA) [SCN5A exon 28 mutant RNA]
[13]
  binding result: no binding

## CAGCAGGCGGGCAGCGGCCU (ssRNA) [SCN5A exon 28 wild-type RNA]
[14]
  binding result: binds
